# In ChEMBL document CHEMBL2010691, “Discovery of loperamide as an antagonist of angiopoietin1 and angiopoietin2 by virtual screening” (Bioorg Med Chem Lett, 2012):
# The source made the active and inactive calls. The rule behind the calls is not given here.
# Assays:
# Angiopoietin-1 receptor [1] = target: T1, Angiopoietin-1 receptor (Homo sapiens, UniProt Q02763); assay: Binding affinity to human recombinant Tie2 by SPR assay
# Angiopoietin-1 receptor [2] = target: T1, Angiopoietin-1 receptor; assay: Displacement of angiopoietin 1 from human recombinant Tie2 at 50 to 100 uM
# Angiopoietin-1 receptor [3] = target: T1, Angiopoietin-1 receptor; assay: Displacement of angiopoietin 1 from human recombinant Tie2 at 25 to 100 uM
# Angiopoietin-1 receptor [4] = target: T1, Angiopoietin-1 receptor; assay: Displacement of angiopoietin 2 from human recombinant Tie2 at 25 to 100 uM
# T1 sequence (Q02763 whole entry): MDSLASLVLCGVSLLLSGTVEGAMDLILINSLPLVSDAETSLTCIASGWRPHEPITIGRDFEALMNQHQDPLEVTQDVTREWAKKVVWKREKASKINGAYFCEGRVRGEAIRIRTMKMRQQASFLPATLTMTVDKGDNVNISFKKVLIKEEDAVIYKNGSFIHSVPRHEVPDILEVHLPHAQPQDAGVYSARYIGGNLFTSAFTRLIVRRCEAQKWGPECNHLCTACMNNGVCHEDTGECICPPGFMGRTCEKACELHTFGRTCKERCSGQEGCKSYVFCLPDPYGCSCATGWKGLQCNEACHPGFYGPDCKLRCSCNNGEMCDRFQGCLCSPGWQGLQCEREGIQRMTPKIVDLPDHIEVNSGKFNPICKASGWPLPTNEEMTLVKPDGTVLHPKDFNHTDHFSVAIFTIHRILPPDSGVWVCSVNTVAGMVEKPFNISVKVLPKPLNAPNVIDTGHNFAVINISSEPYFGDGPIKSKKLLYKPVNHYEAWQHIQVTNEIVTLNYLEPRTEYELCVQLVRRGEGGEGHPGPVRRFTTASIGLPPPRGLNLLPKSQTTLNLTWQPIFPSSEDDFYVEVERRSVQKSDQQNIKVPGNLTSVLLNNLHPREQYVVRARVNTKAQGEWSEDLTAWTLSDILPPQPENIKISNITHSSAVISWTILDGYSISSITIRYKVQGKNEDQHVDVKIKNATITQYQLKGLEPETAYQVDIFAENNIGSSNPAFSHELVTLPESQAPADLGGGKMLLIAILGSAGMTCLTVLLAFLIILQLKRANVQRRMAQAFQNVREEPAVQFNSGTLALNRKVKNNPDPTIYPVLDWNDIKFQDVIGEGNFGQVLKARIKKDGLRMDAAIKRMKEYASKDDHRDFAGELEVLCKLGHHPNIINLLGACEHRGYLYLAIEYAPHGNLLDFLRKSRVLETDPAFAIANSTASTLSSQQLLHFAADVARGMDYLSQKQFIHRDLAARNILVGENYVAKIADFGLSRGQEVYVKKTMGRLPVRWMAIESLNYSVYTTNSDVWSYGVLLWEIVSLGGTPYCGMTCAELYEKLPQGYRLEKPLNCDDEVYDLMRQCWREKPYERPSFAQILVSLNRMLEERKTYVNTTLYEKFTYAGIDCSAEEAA
SMILES,Kd (Angiopoietin-1 receptor [1]),Activity (Angiopoietin-1 receptor [2]),Activity (Angiopoietin-1 receptor [3]),Activity (Angiopoietin-1 receptor [4])
O=C(N[C@H](Cc1ccccc1F)C(=O)O)OCC1c2ccccc2-c2ccccc21,120 µM,Active,–,–
O=C(O)COCCN1CCN(C(c2ccccc2)c2ccc(Cl)cc2)CC1 (centres undefined) [CETIRIZINE],90 µM,Active,–,–
CC1(C)S[C@@H]2[C@H](NC(=O)[C@H](N)c3ccccc3)C(=O)N2[C@H]1C(=O)O [AMPICILLIN],82 µM,Active,–,–
CN(C)C(=O)C(CCN1CCC(O)(c2ccc(Cl)cc2)CC1)(c1ccccc1)c1ccccc1 [LOPERAMIDE],5.9 µM,–,Active,Active
